Source: PubChem BioAssay (NCI)
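At the GI50, growth is halved. The concentration for full growth arrest is given as TGI.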

Assays:
Assay in all cases: NCI-60 cell line screen, 384-well format
[1] = system: 786-0 renal
[2] = system: A498 renal
[3] = system: A549 NSCLC
[4] = system: ACHN renal
[5] = system: BT-549 breast
[6] = system: CAKI-1 renal
[7] = system: CCRF-CEM leukemia
[8] = system: COLO 205 colon
[9] = system: DU-145 prostate
[10] = system: HCC-2998 colon
[11] = system: HCT-116 colon
[12] = system: HCT-15 colon
[13] = system: HL-60(TB) leukemia
[14] = system: HOP-62 NSCLC
[15] = system: HOP-92 NSCLC
[16] = system: HT29 colon
[17] = system: IGROV1 ovarian
[18] = system: K-562 leukemia
[19] = system: KM12 colon
[20] = system: LOX IMVI melanoma
[21] = system: M14 melanoma
[22] = system: MALME-3M melanoma
[23] = system: MCF7 breast
[24] = system: MDA-MB-231 breast
[25] = system: MDA-MB-435 melanoma
[26] = system: MDA-MB-468 breast
[27] = system: MOLT-4 leukemia
[28] = system: NCI-H226 lung
[29] = system: NCI-H23 lung
[30] = system: NCI-H322M lung
[31] = system: NCI-H460 NSCLC
[32] = system: NCI-H522 lung
[33] = system: NCI/ADR-RES ovarian
[34] = system: OVCAR-3 ovarian
[35] = system: OVCAR-4 ovarian
[36] = system: OVCAR-5 ovarian
[37] = system: OVCAR-8 ovarian
[38] = system: PC-3 prostate
[39] = system: RPMI-8226 leukemia
[40] = system: RXF 393 renal
[41] = system: SF-268 CNS
[42] = system: SF-295 CNS
[43] = system: SF-539 CNS
[44] = system: SK-MEL-2 melanoma
[45] = system: SK-MEL-28 melanoma
[46] = system: SK-MEL-5 melanoma
[47] = system: SK-OV-3 ovarian
[48] = system: SN12C renal
[49] = system: SNB-19 CNS
[50] = system: SR leukemia
[51] = system: SW-620 colon
[52] = system: T-47D breast
[53] = system: TK-10 renal
[54] = system: U251 glioblastoma
[55] = system: UACC-257 melanoma
[56] = system: UACC-62 melanoma
[57] = system: UO-31 renal

CCOc1cc(C(C)(C)C)ccc1C1=N[C@@](C)(c2ccc(Cl)cc2)[C@@](C)(c2ccc(Cl)cc2)N1C(=O)N1CCN(CCCS(C)(=O)=O)CC1
GI50 [1]: 2510 nM
TGI [1]: 7150 nM
GI50 [2]: 185 nM
TGI [2]: 1370 nM
GI50 [3]: 405 nM
TGI [3]: 1630 nM
GI50 [4]: 205 nM
TGI [4]: 1210 nM
GI50 [5]: 2350 nM
TGI [5]: 5590 nM
GI50 [6]: 122 nM
TGI [6]: 1470 nM
GI50 [7]: 2120 nM
TGI [7]: 3700 nM
GI50 [8]: 3540 nM
TGI [8]: 9600 nM
GI50 [9]: 3160 nM
TGI [9]: 10100 nM
GI50 [10]: 1470 nM
TGI [10]: 2960 nM
GI50 [11]: 327 nM
TGI [11]: 1610 nM
GI50 [12]: 1900 nM
TGI [12]: 3490 nM
GI50 [13]: 2560 nM
TGI [13]: 4040 nM
GI50 [14]: 2480 nM
TGI [14]: 6590 nM
GI50 [15]: 2240 nM
TGI [15]: 4680 nM
GI50 [16]: 1870 nM
TGI [16]: 3290 nM
GI50 [17]: 1410 nM
TGI [17]: 3320 nM
GI50 [18]: 2940 nM
TGI [18]: 8630 nM
GI50 [19]: 2230 nM
TGI [19]: 4770 nM
GI50 [20]: 892 nM
TGI [20]: 2120 nM
GI50 [21]: 1070 nM
TGI [21]: 3240 nM
GI50 [22]: 753 nM
TGI [22]: 2620 nM
GI50 [23]: 411 nM
TGI [23]: 1940 nM
GI50 [24]: 2660 nM
TGI [24]: 6530 nM
GI50 [25]: 3940 nM
TGI [25]: 11700 nM
GI50 [26]: 2040 nM
TGI [26]: 5160 nM
GI50 [27]: 29.6 nM
TGI [27]: 97.5 nM
GI50 [28]: 108 nM
TGI [28]: 359 nM
GI50 [29]: 5590 nM
TGI [29]: 16400 nM
GI50 [30]: 2280 nM
TGI [30]: 3960 nM
GI50 [31]: 224 nM
TGI [31]: 1300 nM
GI50 [32]: 3250 nM
TGI [32]: 8970 nM
GI50 [33]: 2370 nM
TGI [33]: 6070 nM
GI50 [34]: 2110 nM
TGI [34]: 3760 nM
GI50 [35]: 2530 nM
TGI [35]: 5890 nM
GI50 [36]: 3520 nM
TGI [36]: 10800 nM
GI50 [37]: 3560 nM
TGI [37]: 12600 nM
GI50 [38]: 2150 nM
TGI [38]: 4430 nM
GI50 [39]: 1820 nM
TGI [39]: 3220 nM
GI50 [40]: 2230 nM
TGI [40]: 4550 nM
GI50 [41]: 2650 nM
TGI [41]: 7380 nM
GI50 [42]: 1930 nM
TGI [42]: 3850 nM
GI50 [43]: 2030 nM
TGI [43]: 4250 nM
GI50 [44]: 2260 nM
TGI [44]: 4190 nM
GI50 [45]: 3860 nM
TGI [45]: 10900 nM
GI50 [46]: 1390 nM
TGI [46]: 2690 nM
GI50 [47]: 2600 nM
TGI [47]: 7360 nM
GI50 [48]: 2400 nM
TGI [48]: 5210 nM
GI50 [49]: 3180 nM
TGI [49]: 11300 nM
GI50 [50]: 20 nM
TGI [50]: 56.9 nM
GI50 [51]: 4240 nM
TGI [51]: 13200 nM
GI50 [52]: 2440 nM
TGI [52]: 8590 nM
GI50 [53]: 2830 nM
TGI [53]: 8930 nM
GI50 [54]: 3710 nM
TGI [54]: 11900 nM
GI50 [55]: 1440 nM
TGI [55]: 3140 nM
GI50 [56]: 67.8 nM
TGI [56]: 1590 nM
GI50 [57]: 53.4 nM
TGI [57]: 205 nM
